Measured values reported in patent US20260184710A1, “CASITAS B-LINEAGE LYMPHOMA PROTOONCOGENE B (CBL-B) DEGRADING COMPOUNDS AND ASSOCIATED METHODS OF USE” (Arvinas Operations, Inc., priority 2022, published 2026).

How the values were obtained:
[1] = molecular target: T1, Cbl-b (Homo sapiens, UniProt Q13191); experiment: Cbl-b Degradation Method B (Nano-Glo HiBiT lytic detection); assay type: cell-based; settings: Cbl-b-HiBit KI Jurkat Cells, incubated at least 6-24 hours; for DC50: half maximal degradation, read-out: Cbl-b Degredation Method B IC50; for Dmax: maximum degradation observed, read-out: Cbl-b Degredation Method B Dmax (%)
T1 construct: Cbl-b-HiBit KI Jurkat Cells were purchased from Promega; host or cells: Cbl-b-HiBiT knock-in Jurkat cells
T1 sequence (Q13191 whole entry): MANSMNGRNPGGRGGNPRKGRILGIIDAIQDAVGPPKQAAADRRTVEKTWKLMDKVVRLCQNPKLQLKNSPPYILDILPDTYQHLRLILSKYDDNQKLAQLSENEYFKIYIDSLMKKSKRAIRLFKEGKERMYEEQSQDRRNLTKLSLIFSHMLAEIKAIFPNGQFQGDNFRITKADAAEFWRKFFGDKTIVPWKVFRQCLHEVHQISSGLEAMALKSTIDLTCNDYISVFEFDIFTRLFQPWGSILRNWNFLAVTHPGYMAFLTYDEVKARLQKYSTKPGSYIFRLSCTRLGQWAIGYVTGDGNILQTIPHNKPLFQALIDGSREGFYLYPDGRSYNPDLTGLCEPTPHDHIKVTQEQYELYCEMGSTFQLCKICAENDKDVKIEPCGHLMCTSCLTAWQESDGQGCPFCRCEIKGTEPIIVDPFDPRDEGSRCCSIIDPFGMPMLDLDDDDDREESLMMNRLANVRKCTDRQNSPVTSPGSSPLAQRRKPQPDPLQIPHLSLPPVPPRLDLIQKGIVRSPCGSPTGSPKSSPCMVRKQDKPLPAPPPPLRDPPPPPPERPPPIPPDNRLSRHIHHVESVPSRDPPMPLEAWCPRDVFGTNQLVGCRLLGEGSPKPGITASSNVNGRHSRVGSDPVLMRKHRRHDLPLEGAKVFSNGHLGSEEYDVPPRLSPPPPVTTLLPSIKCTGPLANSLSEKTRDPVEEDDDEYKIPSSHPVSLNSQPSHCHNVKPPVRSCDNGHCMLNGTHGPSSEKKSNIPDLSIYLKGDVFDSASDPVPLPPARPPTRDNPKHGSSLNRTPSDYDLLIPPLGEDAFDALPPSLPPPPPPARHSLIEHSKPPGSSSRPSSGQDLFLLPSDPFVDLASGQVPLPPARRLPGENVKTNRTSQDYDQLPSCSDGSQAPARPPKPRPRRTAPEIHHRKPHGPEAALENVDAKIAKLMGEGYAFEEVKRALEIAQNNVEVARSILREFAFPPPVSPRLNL
Outline: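 Cbl-b-HiBiT knock-in Jurkat cells (20,000/well) were treated after ~24 h plating with an 11-point 1:3 series for 6-24 h at 37° C. Remaining Cbl-b measured by Nano-Glo HiBiT lytic luminescence. DC50 and Dmax expressed as % of control.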

[2] = molecular target: T1, Cbl-b; experiment: Cbl-b Degradation Method A (FACS, anti-Cbl-b antibody staining); assay type: cell-based; settings: Cbl-b-HiBit KI Jurkat Cells, incubated at least 20 hours; for DC50: half maximal degradation, read-out: Cbl-b Degredation Method A IC50; for Dmax: Jurkat, maximum degradation observed, read-out: Cbl-b Degredation Method A Dmax (%)
Outline: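 Cbl-b-HiBit KI Jurkat cells treated with compound for at least 20 h at 37 °C, then fixed, permeabilized and stained with anti-Cbl-b antibody plus anti-rabbit AF488 secondary. Cbl-b levels read by FACS; DC50 and Dmax (percent of control) derived.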

## Cn1cnnc1CC1(c2cccc(NC(=O)c3cc(CN4CCC[C@H](CN5CCC(CN6CCN(c7ccc8c(c7)C(=O)N(C7CCC(=O)NC7=O)C8=O)CC6)CC5)C4)nc(C4CC4)n3)c2)COC1 (stereo partly drawn) [Example 19, 2-cyclopropyl-6-[[(3R)-3-[[4-[[4-[2-(2,6-dioxo-3-piperidyl)-1,3-dioxo-isoindolin-5-yl]piperazin-1-yl]methyl]-1-piperidyl]methyl]-1-piperidyl]methyl]-N-[3-[3-[(4-methyl-1,2,4-triazol-3-yl)methyl]oxetan-3-yl]phenyl]pyrimidine-4-carboxamide]
[1]
  DC50: < 5 nM
  Dmax: < 35%
[2]
  DC50: 50 to 500 nM

## Cn1cnnc1CC1(c2cccc(N3Cc4c(cc(N5CC6(CC(CCOc7ccc8c(c7)C(=O)N(C7CCC(=O)NC7=O)C8=O)C6)C5)cc4C(F)(F)F)C3=O)c2)COC1 (stereo not shown) [Example 20, 2-(2,6-dioxo-3-piperidyl)-5-[2-[2-[2-[3-[3-[(4-methyl-1,2,4-triazol-3-yl)methyl]oxetan-3-yl]phenyl]-3-oxo-7-(trifluoromethyl)isoindolin-5-yl]-2-azaspiro[3.3]heptan-6-yl]ethoxy]isoindoline-1,3-dione]
[1]
  DC50: > 500 nM
[2]
  DC50: > 500 nM

## Cn1cnnc1CC1(c2cccc(N3Cc4c(cc(N5CC(OCC6CCN(c7ccc8c(c7)CN(C7CCC(=O)NC7=O)C8=O)CC6)C5)cc4C(F)(F)F)C3=O)c2)COC1 (stereo not shown) [Example 21, 3-[5-[4-[[1-[2-[3-[3-[(4-methyl-1,2,4-triazol-3-yl)methyl]oxetan-3-yl]phenyl]-3-oxo-7-(trifluoromethyl)isoindolin-5-yl]azetidin-3-yl]oxymethyl]-1-piperidyl]-1-oxo-isoindolin-2-yl]piperidine-2,6-dione]
[1]
  DC50: > 500 nM
[2]
  DC50: > 500 nM

## Cn1cnnc1CC1(c2cccc(N3Cc4c(cc(CN5CCN(C[C@H]6CC[C@H](OC7CCN(c8ccc9c(c8)C(=O)N(C8CCC(=O)NC8=O)C9=O)CC7)CC6)CC5)cc4C(F)(F)F)C3=O)c2)COC1 (stereo partly shown) [Example 22, 2-(2,6-dioxo-3-piperidyl)-5-[4-[4-[[4-[[2-[3-[3-[(4-methyl-1,2,4-triazol-3-yl)methyl]oxetan-3-yl]phenyl]-3-oxo-7-(trifluoromethyl)isoindolin-5-yl]methyl]piperazin-1-yl]methyl]cyclohexoxy]-1-piperidyl]isoindoline-1,3-dione]
[1]
  DC50: < 5 nM
  Dmax: 35 to 70%
[2]
  DC50: 5 to 50 nM
  Dmax: 35 to 70%

## Cn1cnnc1CC1(c2cccc(N3Cc4c(cc(N5CCC(CN6CCC7(CC6)CN(c6ccc8c(c6)C(=O)N(C6CCC(=O)NC6=O)C8=O)C7)CC5)cc4C(F)(F)F)C3=O)c2)COC1 (stereo not shown) [Example 23, 2-(2,6-dioxopiperidin-3-yl)-5-[7-({1-[2-(3-{3-[(4-methyl-4H-1,2,4-triazol-3-yl)methyl]oxetan-3-yl}phenyl)-3-oxo-7-(trifluoromethyl)-2,3-dihydro-1H-isoindol-5-yl]piperidin-4-yl}methyl)-2,7-diazaspiro[3.5]nonan-2-yl]-2,3-dihydro-1H-isoindole-1,3-dione]
[1]
  DC50: > 500 nM
[2]
  DC50: 50 to 500 nM
  Dmax: < 35%

## Cn1cnnc1CC1(c2cccc(N3Cc4c(cc(CN5CCC(CN6CCN(c7ccc8c(c7)C(=O)N(C7CCC(=O)NC7=O)C8=O)CC6)CC5)cc4C(F)(F)F)C3=O)c2)COC1 (stereo not shown) [Example 28, 2-(2,6-dioxopiperidin-3-yl)-5-{4-[(1-{[2-(3-{3-[(4-methyl-4H-1,2,4-triazol-3-yl)methyl]oxetan-3-yl}phenyl)-3-oxo-7-(trifluoromethyl)-2,3-dihydro-1H-isoindol-5-yl]methyl}piperidin-4-yl)methyl]piperazin-1-yl}-2,3-dihydro-1H-isoindole-1,3-dione]
[1]
  DC50: > 500 nM
[2]
  DC50: > 500 nM
